What all share (assay type): cell-based
The test system of one assay is TNF-alpha. The assay can be described thus: Cytokine release after LPS induction on human whole blood: TNFα. The protocol:
(§1) Aim of this in vitro method is to assess compounds effects on release of a panel of cytokines from whole blood following lipopolysaccharide (LPS) induced inflammatory reaction. Whole blood was incubated with compounds for 1 h prior to LPS induction. Cytokine levels in blood were measured using a multiplex FACS-based panel.
(§2) IC50 values determined for the tested compounds expressed in microM [μM] and the values for the inhibition of cytokines were listed for each compound.
(§3) Effect on cytokines release after LPS induction was performed on the compounds dissolved in DMSO or H2O to reach 10-fold concentrated stock solutions and dissolved in culture media.
(§4) Test system: Whole blood was removed from a single donor (into lithium heparin coated tubes; BD Vacutainer; 367886) and diluted 1:5 with RPMI 1640 (Thermo Fisher, 61870036). Within 30 minutes of sampling, blood was incubated with compounds for 1 h prior to LPS stimulation (O111:B4—Sigma L4391; 10 ng/ml final concentration). Stimulation continued under standard cell culture conditions (37° C. with 5% CO2) overnight (18 h), after which plates were centrifuged and supernatant removed and frozen at −80° C. until used for analyses.
(§5) Dilution of test compounds: 10×concentrated solutions (concerning to the final assay concentrations) of each test compound were prepared with the appropriate solvent (in DMSO or in water). These 10× compound solutions (10 μl) were then added to 90 μl pre-diluted whole blood (whole blood: RPMI1640, 1:5) resulting in the final assay concentration.
(§6) Test method: Diluted whole blood (80 μl) was pre-incubated with compounds (10 μl) to give final assay concentrations of 100, 30, 10, 3, 1, 0.3 and 0.1×10^−6M. Blood was incubated at 37° C. with 5% CO2 for 1 h. LPS was diluted in cell culture media to a concentration of […]; 10 μl was added to the whole blood to give a final concentration of 10 ng/ml. Plates were incubated at 37° C. for 18 h. Plates were centrifuged at 3,000 RPM for 5 minutes at 4° C. and supernatant removed and frozen at −80° C. until FACS analysis was carried out.
(§7) Cytokine release was measured using a custom multiplex system (ELISA Genie) according to manufacturers instructions. Prepared samples were run on an Attune NxT flow cytometer (Thermo Fisher).
(§8) Quantification of cytokine release inhibition: known concentration standards were run as part of the cytokine panel to allow quantification of each cytokine concentration in each sample. This was carried out using FCAP Array v3.0 software.
(§9) Results: The dose response relationship on cytokine release following LPS induction of inflammatory response in whole blood was assessed for all compounds. IC50 values were determined for each compound for a panel of cytokines (GM-CSF, IFN-gamma, IL-1beta, IL-2, IL-4, IL-5, IL-6, IL-8, IL-9, IL-10, IL-12p40, IL-13, IL-17A, IL-17F, IL-18, IL-21, IL-22, IL-33, TGF-beta, TNF-alpha, TNF-beta).

In a further assay the test system is IL-33. The assay can be described thus: Cytokine release after LPS induction on human whole blood: IL-33. The protocol: as §1, §2, §3, §4, §5, §6, §7, §8, §9
In another assay the test system is IL-18. The assay can be described thus: Cytokine release after LPS induction on human whole blood: IL-18. As for the experimental part: as §1, §2, §3, §4, §5, §6, §7, §8, §9
The next assay relates to TGF-beta. The assay is described as follows: Cytokine release after LPS induction on human whole blood: TGFβ. As for the experimental part:
as §1, §2, §3, §4, §5, §6, §7, §8, §9

Assay [1] deals with Human neutrophils. The assay is described as follows: Inhibition of ROS production in human neutrophils (isoluminol chemiluminescence). The following applies: Homo sapiens, Neutrophil, fMLP+TNF-α stimulated PMN. Summed up: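 Neutrophils from healthy-donor buffy coats (3×10^6/ml in HBSS with Ca/Mg) pre-incubated 30 min at 37° C with compound (0.1–10 μM), primed with TNF-α 20 ng/ml for 10 min, then added to fibrinogen-coated wells. Isoluminol/HRP chemiluminescence recorded every 25 sec for 250 sec after fMLP (1 μM), background-subtracted.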

The next assay deals with GM-CSF. The assay can be described thus: Cytokine release after LPS induction on human whole blood: GM-CSF. As for the experimental part:
as §1, §2, §3, §4, §5, §6, §7, §8, §9

The test system of assay [2] is Human neutrophils. The assay can be described thus: Neutrophil adhesion under static conditions. The conditions noted are these: fMLP-stimulated adhesion to fibrinogen; method: 40 μM and 80 μM, concentration of the value not stated. Summed up:
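Donor buffy-coat neutrophils (3×10^6/ml, PBS with Ca/Mg, 10% FCS, pH 7.2) preincubated 30 min at 37° C with 40 μM or 80 μM compound, then stimulated 1 min at 37° C with 1 nM fMLP on fibrinogen-coated glass. Adherent cells fixed and counted by computer; mean ± SD, unpaired t-test.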

The next assay relates to IL-4. The assay can be described thus: Cytokine release after LPS induction on human whole blood: IL-4. The protocol: as §1, §2, §3, §4, §5, §6, §7, §8, §9
Setting [3] is: Homo sapiens, LPS 10 ng/ml, 18 h, read-out: Whole Blood: TNF α IC50.
Where [4] appears, read: human whole blood, inhibition of LPS induced inflammation, read-out: IC50 TNFa.
Setting [5] is: Homo sapiens, LPS 10 ng/ml, 18 h, read-out: Whole Blood: IL-33 IC50.
Where [6] appears, read: human whole blood, inhibition of LPS induced inflammation, read-out: IC50 IL-33.
[7] abbreviates: Homo sapiens, LPS 10 ng/ml, 18 h, read-out: Whole Blood: IL-18 IC50.
[8] abbreviates: human whole blood, inhibition of LPS induced inflammation, read-out: IC50 IL-18.
Setting [9] is: Homo sapiens, LPS 10 ng/ml, 18 h, read-out: Whole Blood: TGFβ IC50.
Setting [10] is: human whole blood, inhibition of LPS induced inflammation, read-out: IC50 TGFbeta.
[11] abbreviates: Homo sapiens, LPS 10 ng/ml, 18 h, read-out: Whole Blood: GM-CSF IC50.
Setting [12] is: human whole blood, inhibition of LPS induced inflammation, read-out: IC50 GM-CSF.
The mark [13] stands for this setting: Homo sapiens, LPS 10 ng/ml, 18 h, read-out: Whole Blood: IL-4 IC50.
[14] abbreviates: human whole blood, inhibition of LPS induced inflammation, read-out: IC50 IL-4.

From patent publication US20230150951A1, “2,5- OR 2,6-DISUBSTITUTED HYDROQUINONE DERIVATIVES WITH AT LEAST ONE CARBOXY, SULFO OR AMIDO GROUP USEFUL AS MEDICAMENTS” (OM PHARMA SA, priority 2020, published 2023) come the findings set out here.

Read-outs that look alike come from different tables or passages of the source. Where only a bound is given, the exact number is not on record here.

Take `CCOC(=O)c1cc(NC(=O)c2cc(O)c(C(=O)OCC)cc2O)cc(NC(=O)c2cc(O)c(C(=O)OCC)cc2O)c1` [Ib-010a-E3, ethyl 3,5-bis(2,5-dihydroxy-4-ethoxycarbonylbenzoylamino)benzoate]: the IC50 in the assay with TNF-alpha (setting [3]) was 0.98 µM; in the assay with TNF-alpha (setting [4]), 0.98 µM; in the assay on IL-33 (setting [5]) it was 20 µM; in the assay on IL-33 (setting [6]), 20 µM; in the assay with IL-18 (setting [7]) it was over 100 µM; in the assay on IL-18 (setting [8]), 100 µM. For the same molecule, the IC50 in the assay with TGF-beta (setting [9]) is over 100 µM; in the assay with TGF-beta (setting [10]), 100 µM; with Human neutrophils [1], 6.52 µM; in the assay with GM-CSF (setting [11]), over 100 µM; in the assay on GM-CSF (setting [12]), 100 µM; in the assay with IL-4 (setting [13]) it was over 100 µM. Also, the IC50 in the assay with IL-4 (setting [14]) was determined as 100 µM. In the assay on Human neutrophils [1], this molecule yielded an inhibition at 0.3 µM of 36.4%. Besides, in the assay with Human neutrophils [2], the Neutrophil adhesion inhibition was 79.5%.

Regarding `O=C(O)c1cc(NC(=O)c2cc(O)c(C(=O)Nc3ccccc3-c3nnn[nH]3)cc2O)ccc1O` [Ic-001a-Tz/004a, 5-(4-(2-(1H-tetrazol-5-yl)phenylaminocarbonyl)-2,5-dihydroxybenzamido)-2-hydroxy benzoic acid], the IC50 came out at 0.002 µM with TNF-alpha (Homo sapiens, 18 h, read-out: Whole Blood: TNF α IC50); 0.002 µM in the assay with TNF-alpha (Homo sapiens, read-out: IC50 TNFa); 1.67 µM in the assay with IL-33 (Homo sapiens, 18 h, read-out: Whole Blood: IL-33 IC50); 1.67 µM in the assay with IL-33 (Homo sapiens, read-out: IC50 IL-33); 46.6 µM in the assay with IL-18 (Homo sapiens, 18 h, read-out: Whole Blood: IL-18 IC50); 46.6 µM with IL-18 (Homo sapiens, read-out: IC50 IL-18). The half-maximal inhibitory concentration (IC50) was over 100 µM with TGF-beta (Homo sapiens, 18 h, read-out: Whole Blood: TGFβ IC50); 100 µM in the assay on TGF-beta (Homo sapiens, read-out: IC50 TGFbeta); 3.4 µM in the assay with GM-CSF (Homo sapiens, 18 h, read-out: Whole Blood: GM-CSF IC50); 3.4 µM in the assay with GM-CSF (Homo sapiens, read-out: IC50 GM-CSF); over 100 µM in the assay with IL-4 (Homo sapiens, 18 h, read-out: Whole Blood: IL-4 IC50); 100 µM in the assay on IL-4 (Homo sapiens, read-out: IC50 IL-4). Further, the inhibition at 0.3 µM with Human neutrophils [1] turned out to be 82.8%. In the assay on Human neutrophils [2], this molecule registered a Neutrophil adhesion inhibition of 96.99%.

In the case of `O=C(Nc1ccccc1-c1nnn[nH]1)c1cc(O)c(C(=O)Nc2ccccc2-c2nnn[nH]2)cc1O` [Ic-001aTz2, N1,N4-bis(2-(1H-tetrazol-5-yl)phenyl)-2,5-dihydroxyterephthalamide], the IC50 was 0.1 µM in the assay on TNF-alpha (setting [3]); 0.23 µM with IL-33 (setting [5]); 33.9 µM in the assay with IL-18 (setting [7]); over 100 µM in the assay with TGF-beta (setting [9]); over 100 µM in the assay on GM-CSF (setting [11]); over 100 µM with IL-4 (setting [13]). For the same molecule, the inhibition at 0.3 µM with Human neutrophils [1] turned out to be 60.6%. In the assay on Human neutrophils [2], this molecule came in with a Neutrophil adhesion inhibition of 97.15%.

Regarding `O=C(O)c1cc(NC(=O)c2cc(O)c(C(=O)Nc3ccc(O)c(C(=O)O)c3)cc2O)ccc1O` [Ic-007a, 5-(4-(3-carboxy-4-hydroxyphenylaminocarbonyl)-2,5-dihydroxybenzamido)-2-hydroxy benzoic acid], the half-maximal inhibitory concentration (IC50) is 0.27 µM in the assay with TNF-alpha (setting [3]); 0.27 µM in the assay with TNF-alpha (setting [4]); 18.4 µM in the assay on IL-33 (setting [5]); 18.4 µM in the assay on IL-33 (setting [6]); over 100 µM in the assay on IL-18 (setting [7]); 100 µM in the assay on IL-18 (setting [8]). The IC50 was over 100 µM with TGF-beta (setting [9]); 100 µM in the assay with TGF-beta (setting [10]); 2.7 µM in the assay on Human neutrophils [1]; over 100 µM in the assay with GM-CSF (setting [11]); 100 µM in the assay with GM-CSF (setting [12]); over 100 µM with IL-4 (setting [13]). For the same molecule, the IC50 in the assay with IL-4 (setting [14]) was 100 µM. At 0.3 µM the inhibition in the assay on Human neutrophils [1] was 58%. In the assay with Human neutrophils [2], this molecule gave a Neutrophil adhesion inhibition of 57.5%.
